# Experiment: method code RP-HPLC, from DOI: 10.1021/jm030408h, PMID: 14971904
row,SMILES,logP
1,CCc1nn(CCCN2CCN(c3cccc(Cl)c3)CC2)c(=O)n1CCOc1ccccc1,4.95
2,COc1ccc2c3c1O[C@H]1C(=O)CC[C@@]4(O)[C@@H](C2)N(C)CC[C@]314,0.37
3,C[N+](C)([O-])CCC=C1c2ccccc2CCc2ccccc21,3.14
4,COc1ccc2c3c1O[C@H]1C[C@@H](O)C=C[C@@]31CCN(C)C2,0.21
5,OC(CNCC(O)C1CCc2cc(F)ccc2O1)C1CCc2cc(F)ccc2O1 (stereo not given),2.76
6,CN1CC(C(=O)NC2(C)OC3(O)C4CCCN4C(=O)C(Cc4ccccc4)N3C2=O)C=C2c3cccc4[nH]cc(c34)CC21 (stereo not given),4.38
7,CCCCCc1cc(O)c2c(c1)OC(C)(C)[C@@H]1CCC(C)=C[C@@H]21,6.99
8,CC[C@H]1OC(=O)[C@H](C)[C@@H](O[C@H]2C[C@@](C)(OC)[C@@H](O)[C@H](C)O2)[C@H](C)[C@@H](O[C@@H]2O[C@H](C)C[C@H](N(C)C)[C@H]2O)[C@](C)(O)C[C@@H](C)CN(C)[C@H](C)[C@@H](O)[C@]1(C)O,0.9
9,CCC(C)n1ncn(-c2ccc(N3CCN(c4ccc(OC[C@H]5CO[C@](Cn6cncn6)(c6ccc(Cl)cc6Cl)O5)cc4)CC3)cc2)c1=O (stereo not given in full),5.9
10,C#CCCCC(=O)c1cc(C(C)(C)C)c(O)c(C(C)(C)C)c1,5.63
